What was measured:
Format in all cases: cell-based
[1] = test system: 9×SBE-6×OSE2-OC-luc reporter construct in 2T3 C-17 cells; assay: Luciferase assay, 9×SBE-6×OSE2-OC-luc reporter stably transfected in 2T3 clone C-17; design: Luciferase Activity: unit not given here; settings: for Luciferase Activity / Luciferase Activity (fold increase) / Effect on luciferase activity of the reporter construct / Luciferase Activity, value in parentheses (fold increase): 24 hours; for Maximal effect, fold increase in luciferase activity: over the concentrations tested
Description: (§1) An oligonucleotide containing 9 copies of Smad1 response element (9×SBE) and 6 copies of Cbfa1 response element (6×OSE2) was synthesized in the DNA laboratory at University of Texas Health Science Center at San Antonio. The osteocalcin basal promoter (OC, −155/+1) was amplified by Polymerase Chain Reaction (PCR) using mouse genomic DNA as a template and cloned into pGL3 vector. An 9×SBE-6×OSE2 oligonucleotide was cloned upstream of osteocalcin basal promoter.
(§2) C2C12 and 2T3 cells were plated in 6-well culture plates at densities of 4×10^5 and 2×10^5 cells/well and cultured with DMEM or α minimal essential medium (α MEM) supplemented with 10% FCS for 24 hours. A 9×SBE-6×OSE2-OC-luc-reporter construct (2 μg/well) was co-transfected with pcDNA3 empty vector (0.2 mg/well) in C2C12 and 2T3 cells using lipofactamine plus reagents (Gibco/BRL). Forty eight hours later, G418 (200 μg/ml) was added to the culture plates. Four weeks after G418 selection, the G418 resistant cells were plated in 96-well plates at the density of 1 cell/well and cloned by limiting dilution method.
(§3) C2C12 and 2T3 cells, in which 9×SBE-6×OSE2-OC-luc-reporter construct was stably transfected, were plated in 96-well culture plates at densities of 1×10^4 and 0.5×10^4 cells/well and cultured for 24 hours. The medium was changed to fresh medium supplemented with 2% FCS and different growth factors or hormone were added to culture medium for 24 hours or different compounds were added to culture medium for 2, 6, 12, 24 and 48 hours. The cell lysates were extracted and luciferase activities were determined by luciferase assay kit (Promega, Madison, Wis.) using a Luminometer.
(§4) At the end of the incubation, the cell lysates were extracted using lysis buffer and luciferase activities were measured using a luciferase assay kit (Promega).

[2] = test system: 9×SBE-6×OSE2-OC-luc reporter construct in C2C12 C-10-62 cells; assay: Luciferase assay, 9×SBE-6×OSE2-OC-luc reporter stably transfected in C2C12 clone C-10-62; settings: for Maximal effect, fold increase in luciferase activity: over the concentrations tested; for Effect on luciferase activity of the reporter construct: 24 hours
Description: as §1, §2, §3, §4

[3] = test system: 9×SBE-6×OSE2-OC-luc reporter construct; assay: Luciferase assay, 9×SBE-6×OSE2-OC-luc reporter construct, cells not specified
Source text: as §1, §3
Further, a reporter construct which contains multiple copies of both Smad1 (SBE) and Cbfa1 (OSE2) response elements (9×SBE-6×OSE2-OC-luc) was made.

[4] = 2-ME 1.25 μM, 2T3 cell clone 17
[5] = 9-cis RA 1.25 μM, 2T3 cell clone 17
[6] = 9-cis RA 2.5 μM, 2T3 cell clone 17
[7] = 9-cis RA 5 μM, 2T3 cell clone 17
[8] = 9-cis RA 10 μM, 2T3 cell clone 17
[9] = All-trans RA 1.25 μM, 2T3 cell clone 17
[10] = All-trans RA 2.5 μM, 2T3 cell clone 17
[11] = All-trans RA 5 μM, 2T3 cell clone 17
[12] = All-trans RA 10 μM, 2T3 cell clone 17
[13] = TN-16 0.039 μM, 2T3 cell clone 17
[14] = TN-16 0.078 μM, 2T3 cell clone 17
[15] = TN-16 0.156 μM, 2T3 cell clone 17
[16] = TN-16 0.3125 μM, 2T3 cell clone 17
[17] = TN-16 0.625 μM, 2T3 cell clone 17
[18] = TN-16 1.25 μM, 2T3 cell clone 17
[19] = TN-16 2.5 μM, 2T3 cell clone 17

Molecule: COc1cc2c(cc1O)CC[C@@H]1[C@@H]2CC[C@]2(C)[C@@H](O)CC[C@@H]12 [2-ME, 2-methoxyestradiol, reference compound]
- Luciferase Activity ([1]; 2-ME 0.625 μM, 2T3 cell clone 17): 0.052
- Luciferase Activity [1, 4]: 0.059
- Luciferase Activity (fold increase) [1, 4]: 1.2 fold
- Luciferase Activity ([1]; 2-ME 2.5 μM, 2T3 cell clone 17): 0.065
- Luciferase Activity (fold increase) ([1]; 2-ME 2.5 μM, 2T3 cell clone 17): 1.3 fold
- Luciferase Activity ([1]; 2-ME 5 μM, 2T3 cell clone 17): 0.102
- Luciferase Activity (fold increase) ([1]; 2-ME 5 μM, 2T3 cell clone 17): 2.0 fold
- Luciferase Activity ([1]; 2-ME 10 μM, 2T3 cell clone 17): 0.130
- Luciferase Activity (fold increase) ([1]; 2-ME 10 μM, 2T3 cell clone 17): 2.6 fold
- Effect on luciferase activity of the reporter construct ([1]; 2T3 C-17 cells): stimulated the reporter construct in a dose-dependent manner

Molecule: CC1=C(/C=C/C(C)=C\C=C\C(C)=C\C(=O)O)C(C)(C)CCC1 [9-cis RA, 9-cis retinoic acid, reference compound]
- Maximal effect, fold increase in luciferase activity [2]: 5 fold
- Maximal effect, fold increase in luciferase activity ([1]; 2T3 C-17 cells): 5 fold
- Luciferase Activity [1, 5]: 0.160
- Luciferase Activity, value in parentheses (fold increase) [1, 5]: 3.6 fold
- Luciferase Activity [1, 6]: 0.160
- Luciferase Activity, value in parentheses (fold increase) [1, 6]: 3.6 fold
- Luciferase Activity [1, 7]: 0.164
- Luciferase Activity, value in parentheses (fold increase) [1, 7]: 3.6 fold
- Luciferase Activity [1, 8]: 0.226
- Luciferase Activity, value in parentheses (fold increase) [1, 8]: 5.0 fold

Molecule: CC1=C(/C=C/C(C)=C/C=C/C(C)=C/C(=O)O)C(C)(C)CCC1 [All-trans RA, all-trans retinoic acid, reference compound]
- Maximal effect, fold increase in luciferase activity [2]: 5 fold
- Maximal effect, fold increase in luciferase activity ([1]; 2T3 C-17 cells): 5 fold
- Luciferase Activity [1, 9]: 0.113
- Luciferase Activity, value in parentheses (fold increase) [1, 9]: 2.5 fold
- Luciferase Activity [1, 10]: 0.142
- Luciferase Activity, value in parentheses (fold increase) [1, 10]: 3.2 fold
- Luciferase Activity [1, 11]: 0.164
- Luciferase Activity, value in parentheses (fold increase) [1, 11]: 3.6 fold
- Luciferase Activity [1, 12]: 0.219
- Luciferase Activity, value in parentheses (fold increase) [1, 12]: 4.9 fold

Molecule: CC(Nc1ccccc1)=C1C(=O)NC(Cc2ccccc2)C1=O (centres unmarked) [TN-16, reference compound]
- Effect on luciferase activity of the reporter construct ([1]; 2T3 C-17 cells): stimulated the reporter construct in a dose-dependent manner
- Maximal effect, fold increase in luciferase activity ([1]; 2T3 C-17 cells): 5 fold
- Luciferase Activity [1, 13]: 0.022
- Luciferase Activity (fold increase) [1, 13]: 0.9 fold
- Luciferase Activity [1, 14]: 0.037
- Luciferase Activity (fold increase) [1, 14]: 1.6 fold
- Luciferase Activity [1, 15]: 0.036
- Luciferase Activity (fold increase) [1, 15]: 1.6 fold
- Luciferase Activity [1, 16]: 0.038
- Luciferase Activity (fold increase) [1, 16]: 1.6 fold
- Luciferase Activity [1, 17]: 0.057
- Luciferase Activity (fold increase) [1, 17]: 2.5 fold
- Luciferase Activity [1, 18]: 0.081
- Luciferase Activity (fold increase) [1, 18]: 3.5 fold
- Luciferase Activity [1, 19]: 0.079
- Luciferase Activity (fold increase) [1, 19]: 3.4 fold
- Luciferase Activity ([1]; TN-16 5 μM, 2T3 cell clone 17): 0.111
- Luciferase Activity (fold increase) ([1]; TN-16 5 μM, 2T3 cell clone 17): 4.8 fold
- Luciferase Activity ([1]; TN-16 10 μM, 2T3 cell clone 17): 0.098
- Luciferase Activity (fold increase) ([1]; TN-16 10 μM, 2T3 cell clone 17): 4.2 fold

Molecule: TGF-β
- Effect on luciferase activity of the reporter construct [2]: no significant effects
- Luciferase activity normalized to protein content ([1]; 2T3 C-17 cells): no significant effect
- Maximal effect, fold increase in luciferase activity ([1]; 2T3 C-17 cells): 3 fold
- Luciferase Activity ([1]; TGF-β 0.0195 ng/ml, 2T3 C-17 cells): 0.046
- Luciferase Activity ([1]; TGF-β 0.039 ng/ml, 2T3 C-17 cells): 0.052
- Luciferase Activity ([1]; TGF-β 0.078 ng/ml, 2T3 C-17 cells): 0.053
- Luciferase Activity ([1]; TGF-β 0.156 ng/ml, 2T3 C-17 cells): 0.062
- Luciferase Activity ([1]; TGF-β 0.3125 ng/ml, 2T3 C-17 cells): 0.08
- Luciferase Activity ([1]; TGF-β 0.625 ng/ml, 2T3 C-17 cells): 0.09
- Luciferase Activity ([1]; TGF-β 1.25 ng/ml, 2T3 C-17 cells): 0.102
- Luciferase Activity ([1]; TGF-β 2.5 ng/ml, 2T3 C-17 cells): 0.156
- Luciferase Activity ([1]; TGF-β 5 ng/ml, 2T3 C-17 cells): 0.077
- Luciferase Activity ([1]; TGF-β 10 ng/ml, 2T3 C-17 cells): 0.081

Molecule: acid FGF: Acidic Fibroblast Growth Factor
- Effect on luciferase activity of the reporter construct [2]: no significant effects
- Luciferase Activity ([1]; acid FGF 0.195 ng/ml, 2T3 C-17 cells): 0.06
- Luciferase Activity ([1]; acid FGF 0.39 ng/ml, 2T3 C-17 cells): 0.057
- Luciferase Activity ([1]; acid FGF 0.78 ng/ml, 2T3 C-17 cells): 0.058
- Luciferase Activity ([1]; acid FGF 1.56 ng/ml, 2T3 C-17 cells): 0.051
- Luciferase Activity ([1]; acid FGF 3.125 ng/ml, 2T3 C-17 cells): 0.052
- Luciferase Activity ([1]; acid FGF 6.25 ng/ml, 2T3 C-17 cells): 0.054
- Luciferase Activity ([1]; acid FGF 12.5 ng/ml, 2T3 C-17 cells): 0.051
- Luciferase Activity ([1]; acid FGF 25 ng/ml, 2T3 C-17 cells): 0.052
- Luciferase Activity ([1]; acid FGF 50 ng/ml, 2T3 C-17 cells): 0.058
- Luciferase Activity ([1]; acid FGF 100 ng/ml, 2T3 C-17 cells): 0.075

B1: PTH: Parathyroid Hormone (protein, UniProt P01270 32-115, looked up)
Parathyroid hormone: SVSEIQLMHNLGKHLNSMERVEWLRKKLQDVHNFVALGAPLAPRDAGSQRPRKKEDNVLVESHEKSLGEADKADVNVLTKAKSQ
modifications: Parathyroid hormone
- Luciferase Activity ([1]; PTH 0.195 ng/ml, 2T3 C-17 cells): 0.05
- Luciferase Activity ([1]; PTH 0.39 ng/ml, 2T3 C-17 cells): 0.053
- Luciferase Activity ([1]; PTH 0.78 ng/ml, 2T3 C-17 cells): 0.047
- Luciferase Activity ([1]; PTH 1.56 ng/ml, 2T3 C-17 cells): 0.05
- Luciferase Activity ([1]; PTH 3.125 ng/ml, 2T3 C-17 cells): 0.05
- Luciferase Activity ([1]; PTH 6.25 ng/ml, 2T3 C-17 cells): 0.048
- Luciferase Activity ([1]; PTH 12.5 ng/ml, 2T3 C-17 cells): 0.051
- Luciferase Activity ([1]; PTH 25 ng/ml, 2T3 C-17 cells): 0.053
- Luciferase Activity ([1]; PTH 50 ng/ml, 2T3 C-17 cells): 0.053
- Luciferase Activity ([1]; PTH 100 ng/ml, 2T3 C-17 cells): 0.055

B2: noggin: BMP binding protein noggin (protein, UniProt Q13253 28-232, looked up)
Noggin: QHYLHIRPAPSDNLPLVDLIEHPDPIFDPKEKDLNETLLRSLLGGHYDPGFMATSPPEDRPGGGGGAAGGAEDLAELDQLLRQRPSGAMPSEIKGLEFSEGLAQGKKQRLSKKLRRKLQMWLWSQTFCPVLYAWNDLGSRFWPRYVKVGSCFSKRSCSVPEGMVCKPSKSVHLTVLRWRCQRRGGQRCGWIPIQYPIISECKCSC
- Effect on BMP-2-induced reporter activity ([3]; 500 ng/ml of noggin, 100 ng/ml of BMP-2): completely blocked
- Inhibition of BMP-2-induced luciferase activity ([3]; dose-response): inhibit BMP-2-induced luciferase activity in a dose-dependent manner

— patent US20040009511A1, “Identification of compounds which stimulate bone formation using a cell-based screening assay targeting BMP signaling” (priority 2002, published 2004)
